Results reported in patent publication US5043450A, “8-alkoxyquinolonecarboxylic acid and salts thereof” (priority 1986, dated 1991).
≈ marks a conversion by molar mass, not a printed value. Read-outs that look alike come from different tables or passages of the source.

Assays:
Assay type in all cases: cell-based
[1] = tested on: Propionibacterium acens 11828; assay: Antibacterial spectra, MIC
S. aureus Smith = assay: Antibacterial spectra, MIC; settings: Staphylococcus aureus
[2] = tested on: Salmonella enteritidis IID 604; assay: Antibacterial spectra, MIC; settings: Salmonella enterica
P. aeruginosa IID 1210 = assay: Antibacterial spectra, MIC; settings: Pseudomonas aeruginosa, IID1210
[3] = tested on: Acinetobacter anitratus IID 876; assay: Antibacterial spectra, MIC; settings: Acinetobacter calcoaceticus, IID876
K. pneumoniae 1-220S = assay: Antibacterial spectra, MIC; settings: Klebsiella pneumoniae, 1220S
[4] = tested on: Bacteroides fragilis GM 7000; assay: Antibacterial spectra, MIC; settings: GM7000
P. aeruginosa IFO 12689 = assay: Antibacterial spectra, MIC; settings: Pseudomonas aeruginosa, IFO12689
Pst. micros UPI 5464-1 = assay: Antibacterial spectra, MIC; settings: Parvimonas micra, UPI54641
B. fragilis 0558 = assay: Antibacterial spectra, MIC; settings: Bacteroides fragilis
B. fragilis 25285 = assay: Antibacterial spectra, MIC; settings: Bacteroides fragilis
[5] = tested on: Fusobacterium mortiferum 4249; assay: Antibacterial spectra, MIC
[6] = tested on: Clostridium difficile I-E; assay: Antibacterial spectra, MIC; settings: Clostridioides difficile
B. distasonis 8503 = assay: Antibacterial spectra, MIC; settings: Parabacteroides distasonis
[7] = tested on: Peptococcus magnus KY 017; assay: Antibacterial spectra, MIC; settings: Finegoldia magna, KY017
B. vulgatus KYA 29327 = assay: Antibacterial spectra, MIC; settings: Phocaeicola vulgatus, KYA29327
[8] = tested on: Serratia marcescens IID 618; assay: Antibacterial spectra, MIC
[9] = tested on: Enterobacter cloacae IID 977; assay: Antibacterial spectra, MIC
C. perfringens KYA 13123 = assay: microbe, parasite or virus in culture; settings: Clostridium perfringens, KYA13123
Shigella sonnei IID 969 = assay: Antibacterial spectra, MIC; settings: IID969, 10^6 cells/ml, Gram -
Protocol: (§1) The antibacterial test was carried out according to the method designated by Japan Society of Chemotherapy.

E. coli ML 4707 = assay: Antibacterial spectra, MIC; settings: Escherichia coli, ML4707; 10^6 cells/ml; Gram -
Protocol: as §1

[10] = tested on: Proteus vulgaris IFO 3167; assay: Antibacterial spectra, MIC; settings: IFO3167, 10^6 cells/ml, Gram -
Protocol: as §1

F. varium KYA 8501 = assay: Antibacterial spectra, MIC; settings: Fusobacterium varium, KYA8501
S. epidermidis IID 866 = assay: Antibacterial spectra, MIC; settings: Staphylococcus epidermidis, IID866
[11] = tested on: Pseudomonas aeruginosa V-1; assay: Antibacterial spectra, MIC; settings: V1
[12] = tested on: Veillonella parvula KYA 10790; assay: Antibacterial spectra, MIC; settings: KYA10790
[13] = tested on: Eubacterium lentum GAI 5242; assay: Antibacterial spectra, MIC; settings: Eggerthella lenta, GAI5242
[14] = tested on: S. aureus IID 670 (Terajima); assay: Antibacterial spectra, MIC; settings: Staphylococcus aureus, IID670
P. mirabilis IID 994 = assay: Antibacterial spectra, MIC; settings: Proteus mirabilis, IID994
[15] = tested on: Alcaligenes faecalis 0114002; assay: Antibacterial spectra, MIC
[16] = tested on: Staphylococcus aureus 209 P; assay: Antibacterial spectra, MIC
P. maltophilia GIFU 2491 = assay: Antibacterial spectra, MIC; settings: Stenotrophomonas maltophilia, GIFU2491
[17] = tested on: Citrobacter freundii IID 976; assay: Antibacterial spectra, MIC
[18] = tested on: Klebsiella pneumoniae KY(GN)6445; assay: Antibacterial spectra, MIC
[19] = tested on: B. thetaiotaomicron (0661); assay: Antibacterial spectra, MIC; settings: Bacteroides thetaiotaomicron
[20] = tested on: Escherichia coli NIHJ JC-2; assay: Antibacterial spectra, MIC; settings: NIHJJC2
P. cepacia GIFU 518 = assay: Antibacterial spectra, MIC; settings: Burkholderia cepacia, GIFU518
[21] = tested on: Morganella morganii IID 602; assay: Antibacterial spectra, MIC
[22] = tested on: Yersinia enterocolitica IID 981; assay: Antibacterial spectra, MIC
Bacilus subtilis PCI 219 = assay: Antibacterial spectra, MIC; settings: Bacillus subtilis, PCI219
C. ramosum = assay: Antibacterial spectra, MIC; settings: Thomasclavelia ramosa
[23] = tested on: Peptostreptococcus anaerobius KYA 27337; assay: Antibacterial spectra, MIC
F. necrophorum S-45 = assay: Antibacterial spectra, MIC; settings: Fusobacterium necrophorum, S45
E. coli ATCC 10536 = assay: Antibacterial spectra, MIC; settings: Escherichia coli, ATCC10536
[24] = 10^6 cells/ml, Gram +, read-out: MIC
[25] = 10^6 cells/ml, Gram -, read-out: MIC

Compound: COc1c(N2CCN(C)CC2)c(F)cc2c(=O)c(C(=O)O)cn(C3CC3)c12 [Exp. 2, 1-cyclopropyl-6-fluoro-1,4-dihydro-8-methoxy-7-(4-methyl-1-piperazinyl)-4-oxo-3-quinolinecarboxylic acid]
- MIC [1, 24]: 6.25 µg/mL (≈ 16.6 µM)
- MIC (S. aureus Smith; [24]): 0.1 µg/mL (≈ 0.266 µM)
- MIC [2, 25]: 0.1 µg/mL (≈ 0.266 µM)
- MIC (P. aeruginosa IID 1210; [25]): 1.56 µg/mL (≈ 4.16 µM)
- MIC [3, 25]: 0.1 µg/mL (≈ 0.266 µM)
- MIC (K. pneumoniae 1-220S; [25]): 0.1 µg/mL (≈ 0.266 µM)
- MIC [4]: 0.39 µg/mL (≈ 1.04 µM)
- MIC (P. aeruginosa IFO 12689; [25]): 1.56 µg/mL (≈ 4.16 µM)
- MIC (Pst. micros UPI 5464-1): 0.39 µg/mL (≈ 1.04 µM)
- MIC (B. fragilis 0558; [25]): 0.2 µg/mL (≈ 0.533 µM)
- MIC (B. fragilis 25285): 0.39 µg/mL (≈ 1.04 µM)
- MIC [5, 25]: 0.78 µg/mL (≈ 2.08 µM)
- MIC [6, 24]: 1.56 µg/mL (≈ 4.16 µM)
- MIC (B. distasonis 8503): 0.39 µg/mL (≈ 1.04 µM)
- MIC [7, 24]: 0.2 µg/mL (≈ 0.533 µM)
- MIC (B. vulgatus KYA 29327): 0.39 µg/mL (≈ 1.04 µM)
- MIC ([8]; IID618, 10^6 cells/ml, Gram -, read-out: MIC): 0.1 µg/mL (≈ 0.266 µM)
- MIC ([9]; IID977, 10^6 cells/ml, Gram -, read-out: MIC): 0.1 µg/mL (≈ 0.266 µM)
- MIC (C. perfringens KYA 13123): 0.39 µg/mL (≈ 1.04 µM)
- MIC (Shigella sonnei IID 969): 0.025 µg/mL (≈ 0.0666 µM)
- MIC (E. coli ML 4707): 0.025 µg/mL (≈ 0.0666 µM)
- MIC [10]: 0.025 µg/mL (≈ 0.0666 µM)
- MIC (F. varium KYA 8501; [25]): 6.25 µg/mL (≈ 16.6 µM)
- MIC (S. epidermidis IID 866; [24]): 0.1 µg/mL (≈ 0.266 µM)
- MIC [11]: 0.39 µg/mL (≈ 1.04 µM)
- MIC [12]: 0.39 µg/mL (≈ 1.04 µM)
- MIC [13, 24]: 0.2 µg/mL (≈ 0.533 µM)
- MIC [14, 24]: 0.1 µg/mL (≈ 0.266 µM)
- MIC (P. mirabilis IID 994; [25]): 0.05 µg/mL (≈ 0.133 µM)
- MIC [15]: 0.39 µg/mL (≈ 1.04 µM)
- MIC [16, 24]: 0.1 µg/mL (≈ 0.266 µM)
- MIC (P. maltophilia GIFU 2491; [25]): 0.2 µg/mL (≈ 0.533 µM)
- MIC ([17]; IID976, 10^6 cells/ml, Gram -, read-out: MIC): 0.05 µg/mL (≈ 0.133 µM)
- MIC [18, 25]: 0.05 µg/mL (≈ 0.133 µM)
- MIC [19, 25]: 1.56 µg/mL (≈ 4.16 µM)
- MIC [20]: 0.0125 µg/mL (≈ 0.0333 µM)
- MIC (P. cepacia GIFU 518; [25]): 1.56 µg/mL (≈ 4.16 µM)
- MIC ([21]; IID602, 10^6 cells/ml, Gram -, read-out: MIC): 0.1 µg/mL (≈ 0.266 µM)
- MIC ([22]; IID981, 10^6 cells/ml, Gram -, read-out: MIC): 0.1 µg/mL (≈ 0.266 µM)
- MIC (Bacilus subtilis PCI 219): 0.025 µg/mL (≈ 0.0666 µM)
- MIC (C. ramosum): 3.13 µg/mL (≈ 8.34 µM)
- MIC ([23]; KYA27337, 10^6 cells/ml, Gram +, read-out: MIC): 0.78 µg/mL (≈ 2.08 µM)
- MIC (F. necrophorum S-45; [25]): 0.78 µg/mL (≈ 2.08 µM)
- MIC (E. coli ATCC 10536): 0.025 µg/mL (≈ 0.0666 µM)

Compound: COc1c(N2CCNC(C)C2)c(F)cc2c(=O)c(C(=O)O)cn(C3CC3)c12 (stereo not shown) [Exp. 3, 1-cyclopropyl-6-fluoro-1,4-dihydro-8-methoxy-7-(3-methyl-1-piperazinyl)-4-oxo-3-quinolinecarboxylic acid]
- MIC [1]: 6.25 µg/mL (≈ 16.6 µM)
- MIC (S. aureus Smith): 0.1 µg/mL (≈ 0.266 µM)
- MIC [2]: 0.05 µg/mL (≈ 0.133 µM)
- MIC (P. aeruginosa IID 1210): 1.56 µg/mL (≈ 4.16 µM)
- MIC [3]: 0.1 µg/mL (≈ 0.266 µM)
- MIC (K. pneumoniae 1-220S): 0.05 µg/mL (≈ 0.133 µM)
- MIC [4]: 0.39 µg/mL (≈ 1.04 µM)
- MIC (P. aeruginosa IFO 12689): 1.56 µg/mL (≈ 4.16 µM)
- MIC (Pst. micros UPI 5464-1): 0.2 µg/mL (≈ 0.533 µM)
- MIC (B. fragilis 0558): 0.39 µg/mL (≈ 1.04 µM)
- MIC (B. fragilis 25285): 0.39 µg/mL (≈ 1.04 µM)
- MIC [5]: 0.78 µg/mL (≈ 2.08 µM)
- MIC [6]: 3.13 µg/mL (≈ 8.34 µM)
- MIC (B. distasonis 8503): 0.78 µg/mL (≈ 2.08 µM)
- MIC [7]: 0.2 µg/mL (≈ 0.533 µM)
- MIC (B. vulgatus KYA 29327): 0.78 µg/mL (≈ 2.08 µM)
- MIC ([8]; IID618): 0.1 µg/mL (≈ 0.266 µM)
- MIC ([9]; IID977): 0.05 µg/mL (≈ 0.133 µM)
- MIC (C. perfringens KYA 13123): 0.39 µg/mL (≈ 1.04 µM)
- MIC (Shigella sonnei IID 969): 0.0125 µg/mL (≈ 0.0333 µM)
- MIC (E. coli ML 4707): 0.0125 µg/mL (≈ 0.0333 µM)
- MIC [10]: 0.025 µg/mL (≈ 0.0666 µM)
- MIC (F. varium KYA 8501): 6.25 µg/mL (≈ 16.6 µM)
- MIC (S. epidermidis IID 866): 0.1 µg/mL (≈ 0.266 µM)
- MIC [11]: 0.2 µg/mL (≈ 0.533 µM)
- MIC [12]: 0.2 µg/mL (≈ 0.533 µM)
- MIC [13]: 0.2 µg/mL (≈ 0.533 µM)
- MIC [14]: 0.1 µg/mL (≈ 0.266 µM)
- MIC (P. mirabilis IID 994): 0.025 µg/mL (≈ 0.0666 µM)
- MIC [15]: 0.39 µg/mL (≈ 1.04 µM)
- MIC [16]: 0.1 µg/mL (≈ 0.266 µM)
- MIC (P. maltophilia GIFU 2491): 0.2 µg/mL (≈ 0.533 µM)
- MIC ([17]; IID976): 0.025 µg/mL (≈ 0.0666 µM)
- MIC [18]: 0.025 µg/mL (≈ 0.0666 µM)
- MIC [19]: 0.78 µg/mL (≈ 2.08 µM)
- MIC [20]: ≤ 0.0063 µg/mL
- MIC (P. cepacia GIFU 518): 1.56 µg/mL (≈ 4.16 µM)
- MIC ([21]; IID602): 0.1 µg/mL (≈ 0.266 µM)
- MIC ([22]; IID981): 0.05 µg/mL (≈ 0.133 µM)
- MIC (Bacilus subtilis PCI 219): 0.025 µg/mL (≈ 0.0666 µM)
- MIC (C. ramosum): 3.13 µg/mL (≈ 8.34 µM)
- MIC ([23]; KYA27337): 0.39 µg/mL (≈ 1.04 µM)
- MIC (F. necrophorum S-45): 0.39 µg/mL (≈ 1.04 µM)
- MIC (E. coli ATCC 10536): 0.0125 µg/mL (≈ 0.0333 µM)
